Measurements taken from publication PMC12015462, “Prioritization of novel anti-infective stilbene derivatives by combining metabolomic data organization and a stringent 3R-infection model in a knowledge graph” (RSC Advances, 2025).
Read-outs that look alike come from different tables or passages of the source.

Legend:
Format in all cases: cell-based
[1] = system: Mycobacterium marinum; assay: Infection assay: intracellular M. marinum growth (luminescence) in D. discoideum; settings: for activity at 0.411523 µM / activity at 1.23457 µM / activity at 3.7037 µM / activity at 11.1111 µM / activity at 33.3333 µM / activity at 100 µM: 72 h; for activity at 0.411523 µM: conc 0.411522634 uM; for activity at 1.23457 µM: conc 1.234567901 uM; for activity at 3.7037 µM: conc 3.703703704 uM; for activity at 11.1111 µM: conc 11.11111111 uM; for activity at 33.3333 µM: conc 33.33333333 uM; for activity at 100 µM: conc 100 uM; for IC50: interpolated between the two concentrations closest to residual growth 0.5, top concentration 100 μM
Excerpt: (§1) Since fractions were not weighed individually, the injection mass was used to calculate an average mass per fraction and thus a nominal mass concentration.

[2] = system: Dictyostelium discoideum; assay: Infection assay: growth of the host amoeba D. discoideum (fluorescence) in infection; settings: for activity at 0.411523 µM / activity at 1.23457 µM / activity at 3.7037 µM / activity at 11.1111 µM / activity at 33.3333 µM / activity at 100 µM: 72 h; for IC50: read-out: IC50 Dd in infection (μM)
Excerpt: as §1

[3] = system: Mycobacterium marinum; assay: Anti-biotic assay: M. marinum growth in broth (luminescence); settings: for activity at 0.411523 µM / activity at 1.23457 µM / activity at 3.7037 µM / activity at 11.1111 µM / activity at 33.3333 µM / activity at 100 µM: 72 h; for IC50: read-out: IC50 Mm in broth (μM)
Description: as §1
Plating bacteria and compounds or fractions was performed analogously to the infection assay described above. Bacteria growth was monitored with the Agilent BioTek H1 plate reader by recording luminescence at 32 °C.
The prepared plates were sealed and stored at 4 °C overnight. On the day of the experiment, nine 10 cm Petri dishes were infected (as described before) and grouped into three pools.

[4] = vehicle control set at 1, read-out: mean normalized residual growth, Mm in infection
[5] = vehicle control set at 1, read-out: median normalized residual growth, Mm in infection
[6] = read-out: mean normalized residual growth, Dd in infection
[7] = read-out: median normalized residual growth, Dd in infection
[8] = read-out: mean (normalised M. marinum growth, Mm in broth)
[9] = read-out: median (normalised M. marinum growth, Mm in broth)

| SMILES | activity at 0.411523 µM [1, 4] | activity at 0.411523 µM [1, 5] | activity at 1.23457 µM [1, 4] | activity at 1.23457 µM [1, 5] | activity at 3.7037 µM [1, 4] | activity at 3.7037 µM [1, 5] | activity at 11.1111 µM [1, 4] | activity at 11.1111 µM [1, 5] | activity at 33.3333 µM [1, 4] | activity at 33.3333 µM [1, 5] | activity at 100 µM [1, 4] | activity at 100 µM [1, 5] | IC50 [1] | activity at 0.411523 µM [2, 6] | activity at 1.23457 µM [2, 6] | activity at 3.7037 µM [2, 6] | activity at 11.1111 µM [2, 6] | activity at 33.3333 µM [2, 6] | activity at 100 µM [2, 6] | activity at 0.411523 µM [2, 7] | other results |
| --- | --- | --- | --- | --- | --- | --- | --- | --- | --- | --- | --- | --- | --- | --- | --- | --- | --- | --- | --- | --- | --- |
| Oc1ccc(/C=C/c2cc(O)c3c(c2)O[C@@H](c2ccc(O)cc2)[C@@H]3c2cc(O)c3c(c2)O[C@@H](c2ccc(O)cc2O)[C@H]3c2cc(O)cc(O)c2)cc1 [Compound 4, (−)-Gnetoline A] | 153% | 139% | 173% | 160% | 176% | 171% | 139% | 135% | 88.4% | 86.1% | 12.2% | 17.7% | 66.7 µM | 146% | 109% | 106% | 88.5% | 79% | -10.4% | 96.5% | activity at 1.23457 µM [2, 7]: 84.4%; activity at 3.7037 µM [2, 7]: 85.1%; activity at 11.1111 µM [2, 7]: 79.5%; activity at 33.3333 µM [2, 7]: 79.5%; activity at 100 µM [2, 7]: 38.1%; IC50 [2]: 66.7 µM; activity at 0.411523 µM [3, 8]: 115%; activity at 1.23457 µM [3, 8]: 113%; activity at 3.7037 µM [3, 8]: 113%; activity at 11.1111 µM [3, 8]: 112%; activity at 33.3333 µM [3, 8]: 110%; activity at 100 µM [3, 8]: 99.3%; activity at 0.411523 µM [3, 9]: 112%; activity at 1.23457 µM [3, 9]: 115%; activity at 3.7037 µM [3, 9]: 115%; activity at 11.1111 µM [3, 9]: 116%; activity at 33.3333 µM [3, 9]: 108%; activity at 100 µM [3, 9]: 99.5%; IC50 [3]: > 100 µM |
| Oc1ccc(/C=C/c2cc(O)c3c(c2)O[C@@H](c2ccc(O)cc2)[C@@H]3c2cc(O)c3c(c2)O[C@H](c2ccc(O)cc2O)[C@H]3c2cc(O)cc(O)c2)cc1 [Compound 5, (−)-Latifolol] | 116% | 112% | 160% | 158% | 192% | 178% | 136% | 125% | 81.5% | 81.6% | 2.94% | 7.57% | 66.7 µM | 112% | 85.8% | 91.4% | 75.1% | 61% | -3.13% | 93.8% | activity at 1.23457 µM [2, 7]: 81.7%; activity at 3.7037 µM [2, 7]: 79.8%; activity at 11.1111 µM [2, 7]: 74.5%; activity at 33.3333 µM [2, 7]: 69%; activity at 100 µM [2, 7]: 32.8%; IC50 [2]: 66.7 µM; activity at 0.411523 µM [3, 8]: 107%; activity at 1.23457 µM [3, 8]: 108%; activity at 3.7037 µM [3, 8]: 104%; activity at 11.1111 µM [3, 8]: 114%; activity at 33.3333 µM [3, 8]: 95.8%; activity at 100 µM [3, 8]: 91%; activity at 0.411523 µM [3, 9]: 106%; activity at 1.23457 µM [3, 9]: 108%; activity at 3.7037 µM [3, 9]: 107%; activity at 11.1111 µM [3, 9]: 116%; activity at 33.3333 µM [3, 9]: 102%; activity at 100 µM [3, 9]: 102%; IC50 [3]: > 100 µM |
| Oc1ccc(/C=C/c2cc(O)c3c(c2)O[C@@H](c2ccc(O)cc2)[C@@H]3c2cc(O)c3c(c2)O[C@H](c2ccc(O)cc2)[C@H]3c2cc(O)cc(O)c2)cc1 [Compound 6, (−)-Gnetin E] | 165% | 154% | 202% | 184% | 196% | 172% | 169% | 155% | 98.2% | 95.4% | 46.3% | 49.1% | 66.7 µM | 119% | 116% | 112% | 114% | 95.3% | 35.6% | 93.6% | activity at 1.23457 µM [2, 7]: 89.2%; activity at 3.7037 µM [2, 7]: 92%; activity at 11.1111 µM [2, 7]: 88.5%; activity at 33.3333 µM [2, 7]: 86.1%; activity at 100 µM [2, 7]: 56.8%; IC50 [2]: > 100 µM; activity at 0.411523 µM [3, 8]: 134%; activity at 1.23457 µM [3, 8]: 114%; activity at 3.7037 µM [3, 8]: 113%; activity at 11.1111 µM [3, 8]: 114%; activity at 33.3333 µM [3, 8]: 118%; activity at 100 µM [3, 8]: 110%; activity at 0.411523 µM [3, 9]: 135%; activity at 1.23457 µM [3, 9]: 109%; activity at 3.7037 µM [3, 9]: 114%; activity at 11.1111 µM [3, 9]: 114%; activity at 33.3333 µM [3, 9]: 119%; activity at 100 µM [3, 9]: 110%; IC50 [3]: > 100 µM |
| Oc1ccc(/C=C/c2cc(O)c3c(c2)O[C@H](c2ccc(O)cc2)[C@H]3c2cc(O)c3c(c2)O[C@H](c2ccc(O)cc2)[C@H]3c2cc(O)c3c(c2)O[C@H](c2ccc(O)cc2O)[C@H]3c2cc(O)cc(O)c2)cc1 [Compound 7, Macrostachyol A] | 139% | 130% | 158% | 153% | 163% | 154% | 151% | 157% | 80.7% | 76% | 33.4% | 37.5% | 66.7 µM | 143% | 146% | 119% | 111% | 63% | -92.9% | 91.3% | activity at 1.23457 µM [2, 7]: 90.3%; activity at 3.7037 µM [2, 7]: 92%; activity at 11.1111 µM [2, 7]: 91%; activity at 33.3333 µM [2, 7]: 82.1%; activity at 100 µM [2, 7]: 3.73%; IC50 [2]: 66.7 µM; activity at 0.411523 µM [3, 8]: 118%; activity at 1.23457 µM [3, 8]: 118%; activity at 3.7037 µM [3, 8]: 114%; activity at 11.1111 µM [3, 8]: 106%; activity at 33.3333 µM [3, 8]: 112%; activity at 100 µM [3, 8]: 107%; activity at 0.411523 µM [3, 9]: 117%; activity at 1.23457 µM [3, 9]: 123%; activity at 3.7037 µM [3, 9]: 116%; activity at 11.1111 µM [3, 9]: 105%; activity at 33.3333 µM [3, 9]: 114%; activity at 100 µM [3, 9]: 109%; IC50 [3]: > 100 µM |
| Oc1ccc(/C=C/c2cc(O)c3c(c2)O[C@H](c2ccc(O)cc2)[C@H]3c2cc(O)c3c(c2)O[C@H](c2ccc(O)cc2)[C@H]3c2cc(O)c3c(c2)O[C@H](c2ccc(O)cc2)[C@H]3c2cc(O)cc(O)c2)cc1 [Compound 8, Gnemonol B] | 132% | 146% | 105% | 94.6% | 127% | 144% | 124% | 128% | 112% | 117% | 61% | 45.3% | 66.7 µM | 159% | 139% | 139% | 120% | 114% | 51.3% | 92.7% | activity at 1.23457 µM [2, 7]: 85.7%; activity at 3.7037 µM [2, 7]: 92.1%; activity at 11.1111 µM [2, 7]: 88.6%; activity at 33.3333 µM [2, 7]: 81.5%; activity at 100 µM [2, 7]: 33.4%; IC50 [2]: 66.7 µM; activity at 0.411523 µM [3, 8]: 118%; activity at 1.23457 µM [3, 8]: 111%; activity at 3.7037 µM [3, 8]: 113%; activity at 11.1111 µM [3, 8]: 119%; activity at 33.3333 µM [3, 8]: 117%; activity at 100 µM [3, 8]: 114%; activity at 0.411523 µM [3, 9]: 125%; activity at 1.23457 µM [3, 9]: 116%; activity at 3.7037 µM [3, 9]: 117%; activity at 11.1111 µM [3, 9]: 115%; activity at 33.3333 µM [3, 9]: 120%; activity at 100 µM [3, 9]: 115%; IC50 [3]: > 100 µM |
| Oc1ccc([C@@H]2Oc3cc(O)ccc3[C@H]3[C@H](c4cc(O)cc(O)c4)c4c(O)cc(O)cc4[C@H]32)cc1 [Compound 9, (−)-Gnemontanin G] | 59% | 69.2% | 82.5% | 85.7% | 76.2% | 74.2% | 58.4% | 59.5% | 65.6% | 72.4% | 71.9% | 75.7% | > 100 µM | 58.2% | 70.8% | 60.4% | 64.9% | 72.5% | 103% | 95.8% | activity at 1.23457 µM [2, 7]: 97.6%; activity at 3.7037 µM [2, 7]: 99.6%; activity at 11.1111 µM [2, 7]: 93.8%; activity at 33.3333 µM [2, 7]: 91.4%; activity at 100 µM [2, 7]: 91.6%; IC50 [2]: > 100 µM; activity at 0.411523 µM [3, 8]: 87.4%; activity at 1.23457 µM [3, 8]: 93.9%; activity at 3.7037 µM [3, 8]: 92.7%; activity at 11.1111 µM [3, 8]: 81.3%; activity at 33.3333 µM [3, 8]: 89.2%; activity at 100 µM [3, 8]: 92.6%; activity at 0.411523 µM [3, 9]: 86.6%; activity at 1.23457 µM [3, 9]: 96.7%; activity at 3.7037 µM [3, 9]: 92.3%; activity at 11.1111 µM [3, 9]: 78.6%; activity at 33.3333 µM [3, 9]: 87.9%; activity at 100 µM [3, 9]: 91.7% |
